What was measured:
[1] = xn = mol fraction of the nth substance listed; conditions: 100.8 kPa, Liquid; for viscosity: Falling or rolling sphere viscometry
[2] = refractive index (Na D-line) (dimensionless); xn = mol fraction of the nth substance listed; conditions: 100.8 kPa, Liquid, Standard Abbe refractometry

CC(C)(C)O [2-methylpropan-2-ol] + CCO
Conditions | mass density, 298.15 K [kg/m3] | mass density, 308.15 K [kg/m3] | mass density, 318.15 K [kg/m3] | refractive index, 298.15 K | refractive index, 308.15 K | refractive index, 318.15 K | viscosity, 298.15 K [mPa·s] | viscosity, 308.15 K [mPa·s] | viscosity, 318.15 K [mPa·s]
[1], x2 = 0 | 780.99 | 770.7 | 760.05 | – | – | – | 4.43 | 2.622 | 1.708
[1], x2 = 0.05 | 782.27 | 772.23 | 761.94 | – | – | – | 4.295 | 2.587 | 1.73
[1], x2 = 0.1 | 782.82 | 772.95 | 762.82 | – | – | – | 4.135 | 2.536 | 1.719
[1], x2 = 0.15 | 783.19 | 773.6 | 763.53 | – | – | – | 3.949 | 2.463 | 1.698
[1], x2 = 0.2 | 783.47 | 774.03 | 764.14 | – | – | – | 3.752 | 2.374 | 1.662
[1], x2 = 0.25 | 783.65 | 774.34 | 764.59 | – | – | – | 3.552 | 2.277 | 1.618
[1], x2 = 0.3 | 783.81 | 774.62 | 765.01 | – | – | – | 3.348 | 2.18 | 1.568
[1], x2 = 0.35 | 783.94 | 774.87 | 765.41 | – | – | – | 3.134 | 2.082 | 1.515
[1], x2 = 0.4 | 784.03 | 775.07 | 765.74 | – | – | – | 2.905 | 1.978 | 1.456
[1], x2 = 0.45 | 784.11 | 775.29 | 766.04 | – | – | – | 2.668 | 1.877 | 1.395
[1], x2 = 0.5 | 784.18 | 775.45 | 766.31 | – | – | – | 2.462 | 1.772 | 1.332
[1], x2 = 0.55 | 784.29 | 775.61 | 766.58 | – | – | – | 2.272 | 1.675 | 1.272
[1], x2 = 0.6 | 784.32 | 775.68 | 766.72 | – | – | – | 2.097 | 1.575 | 1.213
[1], x2 = 0.65 | 784.4 | 775.77 | 766.87 | – | – | – | 1.934 | 1.475 | 1.153
[1], x2 = 0.7 | 784.42 | 775.85 | 767.01 | – | – | – | 1.782 | 1.38 | 1.092
[1], x2 = 0.75 | 784.49 | 775.93 | 767.15 | – | – | – | 1.644 | 1.291 | 1.032
[1], x2 = 0.8 | 784.62 | 776.07 | 767.27 | – | – | – | 1.518 | 1.206 | 0.974
[1], x2 = 0.85 | 784.75 | 776.18 | 767.41 | – | – | – | 1.4 | 1.126 | 0.919
[1], x2 = 0.9 | 784.86 | 776.28 | 767.51 | – | – | – | 1.285 | 1.048 | 0.862
[1], x2 = 0.95 | 785.02 | 776.4 | 767.6 | – | – | – | 1.188 | 0.976 | 0.805
[2], x2 = 0 | – | – | – | 1.38481 | 1.3796 | 1.37416 | – | – | –
[2], x2 = 0.05 | – | – | – | 1.38427 | 1.37911 | 1.37378 | – | – | –
[2], x2 = 0.1 | – | – | – | 1.38367 | 1.37861 | 1.37336 | – | – | –
[2], x2 = 0.15 | – | – | – | 1.38294 | 1.37797 | 1.37284 | – | – | –
[2], x2 = 0.2 | – | – | – | 1.38213 | 1.37726 | 1.37224 | – | – | –
[2], x2 = 0.25 | – | – | – | 1.38123 | 1.37648 | 1.3715 | – | – | –
[2], x2 = 0.3 | – | – | – | 1.38027 | 1.37558 | 1.37072 | – | – | –
[2], x2 = 0.35 | – | – | – | 1.37923 | 1.37463 | 1.36984 | – | – | –
[2], x2 = 0.4 | – | – | – | 1.37813 | 1.3736 | 1.36891 | – | – | –
[2], x2 = 0.45 | – | – | – | 1.37698 | 1.37253 | 1.36791 | – | – | –
[2], x2 = 0.5 | – | – | – | 1.37576 | 1.37136 | 1.36682 | – | – | –
[2], x2 = 0.55 | – | – | – | 1.37449 | 1.37013 | 1.36567 | – | – | –
[2], x2 = 0.6 | – | – | – | 1.37312 | 1.36883 | 1.36442 | – | – | –
[2], x2 = 0.65 | – | – | – | 1.37171 | 1.36741 | 1.36304 | – | – | –
[2], x2 = 0.7 | – | – | – | 1.37018 | 1.36593 | 1.36162 | – | – | –
[2], x2 = 0.75 | – | – | – | 1.36859 | 1.36438 | 1.36007 | – | – | –
[2], x2 = 0.8 | – | – | – | 1.3669 | 1.36271 | 1.35848 | – | – | –
[2], x2 = 0.85 | – | – | – | 1.36515 | 1.36096 | 1.35677 | – | – | –
[2], x2 = 0.9 | – | – | – | 1.36332 | 1.35914 | 1.35498 | – | – | –
[2], x2 = 0.95 | – | – | – | 1.36137 | 1.3572 | 1.35308 | – | – | –

From the NIST ThermoML archive (doi:10.1021/je0501639)
